A short description of data set [1]: Solubility of riboflavin as a function of pH and % FMN. The class given is physicochemical. As to conditions: for solubility thermodynamic: thermodynamic from solid. An excerpt:
The equilibrium solubility of riboflavin is approximately 70 mcg/ml (see plot below with no FMN present). Precipitation is expected to occur if riboflavin reaches a level above this (due to riboflavin in drug substance or due to degradation to riboflavin with time), and precipitation would be unacceptable for patient safety with intravenous use.
Solubility of Riboflavin as a function of pH and % FMN [formula]
At 1% FMN, up to 365 mcg/ml of riboflavin can dissolve.

The nature of data set [2]: Solubilization of lumichrome in the FMN formulation. It counts as physicochemical.

Consider 2 compounds from patent US20030161871A1, “Solubilized riboflavin” (priority 2001, published 2003).

The structures appear in SMILES notation. In brackets after ≈: the same amount, converted by molar mass. Read-outs that look alike come from different tables or passages of the source.

Turning to `Cc1cc2nc3c(=O)[nH]c(=O)nc-3n(C[C@H](O)[C@H](O)[C@H](O)CO)c2cc1C` [riboflavin], the solubility thermodynamic in data set [1] (1% FMN solution, aqueous with cosolvent or surfactant or cyclodextrin, read-out: riboflavin that can dissolve (equilibrium solubility)) was at most 365 µg/mL; in data set [1] (5% FMN solution, aqueous with cosolvent or surfactant or cyclodextrin, 5% FMN, pH 7-8, read-out: riboflavin that can dissolve (equilibrium solubility)), at most 1320 µg/mL; in data set [1] (no FMN present, read-out: equilibrium solubility of riboflavin) it was about 70 µg/mL (≈ 186 µM). The “equilibrium solubility of riboflavin” value in data set [1] (no FMN present) is on record as “approximately 70 mcg/ml”.
For the compound `Cc1cc2nc3[nH]c(=O)[nH]c(=O)c3nc2cc1C` [lumichrome], the “solubility of lumichrome in the current formulation” value in data set [2] is reported as “dissolve at levels above the equilibrium solubility”.
